Test [1] deals with paclitaxel-resistant cell line HCT116/VM46. In words: cells. The test is classed as cell-based. The conditions noted are these: Homo sapiens, HCT-116/VM46, 72 h, read-out: Cytotoxicity Assay IC50. As for the experimental part: Cytotoxicity was assessed in HCT-116 and line HCT116/VM46 human colon carcinoma cells by MTS (3-(4,5-dimethylthiazol-2-yl)-5-(3-carboxymethoxyphenyl)-2-(4-sulphenyl)-2H-tetrazolium, inner salt) assay as reported in T. L. Riss, el. al., "Comparison of MTT, XTT, and a novel tetrazolium compound MTS for in vitro proliferation and chemosensitivity assays.," Mol. Biol. Cell 3 (Suppl.):184a, 1992. Cells were plated at 4,000 cell/well in 96 well microliter plates and 24 hours later drugs were added and serial diluted. The cells were incubated at 37° for 72 hours at which time the tetrazolium dye, MTS at 333 μg/ml (final concentration), in combination with the electron coupling agent phenazine methosulfate at 25 μM (final concentration) was added. A dehydrogenase enzyme in live cells reduces the MTS to a form that absorbs light at […] which can be quantitated spectrophotometrically. The greater the absorbance the greater the number of live cells. The results are expressed as an IC50, which is the drug concentration required to inhibit cell proliferation (i.e. absorbance at 450 nm) to 50% of that of untreated control cells. The IC50 values for compounds evaluated in this assay are evaluated in Table I.

Test [2] has as its system human colon carcinoma cells HCT-116. In words: MTS in vitro cytotoxicity assay, HCT-116. The test is classed as cell-based. The following applies: 72 h exposure. Here is the method:
Cells were plated at 4,000 cell/well in 96 well microliter plates and 24 hours later drugs were added and serial diluted. […] The greater the absorbance the greater the number of live cells.

The conditions of test [3]: in vivo animal models; cited from earlier work.

SMILES strings stand for the structures. pIC50: −log10 of the molar value.

As to `CC(=O)O[C@@]12CO[C@@H]1C[C@@H]1OC(C)(C)O[C@H]3[C@H](O)C4=C(C)[C@@H](OC(=O)[C@H](O)[C@@H](NC(=O)c5ccccc5)c5ccccc5)C[C@@H]([C@@H](OC(=O)c5ccccc5)[C@H]2[C@@]13C)C4(C)C` [Compound 7a, 10-Deacetyl-1-deoxy-9(R)-dihydropaclitaxel 7,9-acetonide], in test [1], the pIC50 was 10.94.
For the compound `CC(=O)O[C@@]12CO[C@@H]1C[C@@H]1OC(c3ccccc3)O[C@H]3[C@H](O)C4=C(C)[C@@H](OC(=O)[C@H](O)[C@@H](NC(=O)OC(C)(C)C)c5ccccc5)C[C@@H]([C@@H](OC(=O)c5ccccc5)[C@H]2[C@@]13C)C4(C)C` (stereo partly drawn) [Compound 7b, 1-deoxy-9(R)-dihydrodocetaxel 7,9-benzylidene acetal], the pIC50 in test [2] is 10.98; in test [1] it was 10.53.
`CC(=O)O[C@@H]1C2=C(C)[C@@H](OC(=O)[C@H](O)[C@@H](NC(=O)OC(C)(C)C)c3ccccc3)C[C@@H]([C@@H](OC(=O)c3ccccc3)[C@@H]3[C@]4(OC(C)=O)CO[C@@H]4C[C@H](OC(C)=O)[C@@]3(C)[C@H]1OC(C)=O)C2(C)C` [Compound 7c, 7,9,10-triacetyl-1-deoxy-9(R)-dihydrodocetaxel]: the pIC50 in test [1] was 10.66.
As to `CC(=O)O[C@H]1C(=O)[C@@]2(C)[C@H]([C@H](OC(=O)c3ccccc3)[C@]3(O)C[C@H](OC(=O)[C@H](O)[C@@H](NC(=O)c4ccccc4)c4ccccc4)C(C)=C1C3(C)C)[C@]1(OC(C)=O)CO[C@@H]1C[C@@H]2O` [paclitaxel], the pIC50 in test [1] is 9.65. Moreover, the “antitumor activity (in words)” value in test [3] is reported as “excellent antitumor activity”.

The term pIC50 denotes the IC50 on a negative log10 scale, so that one unit is a factor of ten.

The values above are taken from patent publication US5739359A, “Methods for preparing 1-deoxy paclitaxels” (Virginia Tech Intellectual Properties, Inc., priority 1997, dated 1998).
